# US20060276464A1, “Diarylsulfone sulfonamides and use thereof” (Wyeth, priority 2005, published 2006)
# Where two headings read alike, the source gives them in different places.
# Target: T1, SFRP-1 (Homo sapiens, UniProt Q8N474)
# T1 sequence (Q8N474 32-314): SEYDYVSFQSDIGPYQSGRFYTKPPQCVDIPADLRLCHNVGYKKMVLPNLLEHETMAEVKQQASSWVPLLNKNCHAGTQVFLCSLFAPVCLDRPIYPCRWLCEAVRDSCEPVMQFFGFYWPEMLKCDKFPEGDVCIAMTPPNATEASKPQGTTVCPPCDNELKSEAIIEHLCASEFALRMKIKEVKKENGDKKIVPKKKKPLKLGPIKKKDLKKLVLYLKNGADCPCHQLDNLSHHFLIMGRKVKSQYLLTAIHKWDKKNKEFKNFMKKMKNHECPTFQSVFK
# Assay: Cell-based assay for in vitro measurement of SFRP-1/SARP2 antagonist activity (U2OS cells co-transfected with 16x TCF-tk-Luciferase reporter, Wnt and hSFRP-1);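 also: U2OS cells co-transfected with a TCF-tk luciferase reporter, a Wnt vector, hSFRP-1 or empty vector and CMV-βgal, luciferase luminescence read in cell lysates alongside βgal activity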
# Conditions: for fold induction at 15 µM / fold induction at 10 µM / fold induction at 30 µM / fold induction at 20 µM: U2OS; for fold induction at 10 µM: read-out: Fold Induction with SFRP-1, U2OS cells, single dose 10 μM, luciferase reporter, fold induction over SFRP-1 control
# [1] = read-out: Fold Induction with SFRP-1, Conc 15 μM, with SFRP-1, fold induction over SFRP-1 control, single dose
# [2] = read-out: Fold Induction without SFRP-1, Conc 15 μM, without SFRP-1, single dose
# [3] = read-out: Fold Induction with SFRP-1, Conc 30 μM, with SFRP-1, fold induction over SFRP-1 control, single dose
# [4] = read-out: Fold Induction without SFRP-1, Conc 30 μM, without SFRP-1, single dose
# [5] = read-out: Fold Induction with SFRP-1, Conc 15 μM, single dose, luciferase reporter, fold induction over SFRP-1 control, cells with SFRP-1
# [6] = read-out: Fold Induction without SFRP-1, Conc 15 μM, single dose, luciferase reporter, cells without SFRP-1 (specificity control)
structure (smiles),measurement,setting,value
"CCc1ccc(S(=O)(=O)c2ccccc2)cc1S(=O)(=O)NC[C@H](C)c1ccccc1 [Example 268, 2-ethyl-N-[(2R)-2-phenylpropyl]-5-(phenylsulfonyl)benzenesulfonamide]",fold induction at 15 µM,[1],3.6
same,fold induction at 15 µM,[2],1.1
"Cc1ccc(S(=O)(=O)c2ccccc2)cc1S(=O)(=O)N1CCN(CCCN2CCOCC2)CC1 [Example 283, 4-[3-(4-{[2-methyl-5-(phenylsulfonyl)phenyl]sulfonyl}piperazin-1-yl)propyl]morpholine]",fold induction at 15 µM,[1],1.8
same,fold induction at 15 µM,[2],1.3
"Cc1ccc(C(=O)NCCNS(=O)(=O)c2cc(S(=O)(=O)c3ccccc3)ccc2C(F)(F)F)cc1 [Example 775, 4-Methyl-N-[2-({[5-(phenylsulfonyl)-2-(trifluoromethyl)phenyl]sulfonyl}amino)ethyl]benzamide]",fold induction at 10 µM,,1.3
"Cc1ccc(S(=O)(=O)c2ccccc2)cc1S(=O)(=O)NCCN(C)C [Example 214, N-[2-(dimethylamino)ethyl]-2-methyl-5-(phenylsulfonyl)benzenesulfonamide]",fold induction at 15 µM,[1],3.2
same,fold induction at 15 µM,[2],1.5
"O=S(=O)(NCCc1c[nH]cn1)c1cccc(S(=O)(=O)c2ccccc2)c1 [Example 189, N-[2-(1H-imidazol-4-yl)ethyl]-3-(phenylsulfonyl)benzenesulfonamide]",fold induction at 30 µM,[3],1.3
same,fold induction at 30 µM,[4],1
"Cc1ccc(S(=O)(=O)c2cc(Cl)cc(C#N)c2)cc1S(=O)(=O)NCCc1ccccn1 [Example 492, 5-[(3-chloro-5-cyanophenyl)sulfonyl]-2-methyl-N-(2-pyridin-2-ylethyl)benzenesulfonamide]",fold induction at 15 µM,[5],1.6
same,fold induction at 15 µM,[6],1.2
"Cc1ccc(S(=O)(=O)c2ccccc2)cc1S(=O)(=O)N1CCN(CC(=O)N2CCCC2)CC1 [Example 279, 1-{[2-methyl-5-(phenylsulfonyl)phenyl]sulfonyl}-4-(2-oxo-2-pyrrolidin-1-ylethyl)piperazine]",fold induction at 15 µM,[1],1.9
same,fold induction at 15 µM,[2],1
"Cc1ccc(S(=O)(=O)c2cccc3ccccc23)cc1S(=O)(=O)NCCc1ccccn1 [Example 410, 2-methyl-5-(1-naphthylsulfonyl)-N-(2-pyridin-2-ylethyl)benzenesulfonamide]",fold induction at 15 µM,[1],2.7
same,fold induction at 15 µM,[2],1.3
"Cc1c(S(=O)(=O)NCCN2CCOCC2)cccc1S(=O)(=O)c1ccccc1 [Example 495, 2-methyl-N-(2-morpholin-4-ylethyl)-3-(phenylsulfonyl)benzenesulfonamide]",fold induction at 15 µM,[5],1.1
same,fold induction at 15 µM,[6],1.3
"Cc1ccc(S(=O)(=O)c2ccc(N3CCCC3)cc2)cc1S(=O)(=O)NCCCn1ccnc1 [Example 305, N-[3-(1H-imidazol-1-yl)propyl]-2-methyl-5-[(4-pyrrolidin-1-ylphenyl)sulfonyl]benzenesulfonamide]",fold induction at 15 µM,[1],1.8
same,fold induction at 15 µM,[2],1
"O=C(NCCNS(=O)(=O)c1cc(S(=O)(=O)c2ccccc2)ccc1C(F)(F)F)c1ccc(Cl)cc1 [Example 778, 4-Chloro-N-[2-({[5-(phenylsulfonyl)-2-(trifluoromethyl)phenyl]sulfonyl}amino)ethyl]benzamide]",fold induction at 10 µM,,1.2
"O=S(=O)(NCCc1ccccc1)c1cc(S(=O)(=O)c2ccccc2)ccc1Cl [Example 334, 2-chloro-N-(2-phenylethyl)-5-(phenylsulfonyl)benzenesulfonamide]",fold induction at 15 µM,[1],1.5
same,fold induction at 15 µM,[2],1.2
"CCc1ccc(S(=O)(=O)c2ccccc2)cc1S(=O)(=O)NCCc1c[nH]cn1 [Example 225, 2-ethyl-N-[2-(1H-imidazol-4-yl)ethyl]-5-(phenylsulfonyl)benzenesulfonamide]",fold induction at 15 µM,[1],3.1
same,fold induction at 15 µM,[2],0.9
"COc1ccc(CCNS(=O)(=O)c2cc(S(=O)(=O)c3ccc(C)cc3)ccc2C)cc1OC [Example 120, N-[2-(3,4-dimethoxyphenyl)ethyl]-2-methyl-5-[(4-methylphenyl)sulfonyl]benzenesulfonamide]",fold induction at 30 µM,[3],1.2
same,fold induction at 30 µM,[4],0.5
"Cc1ccc(S(=O)(=O)c2cccc(Cl)c2)cc1S(=O)(=O)NCCCn1ccnc1 [Example 342, 5-[(3-chlorophenyl)sulfonyl]-N-[3-(1H-imidazol-1-yl)propyl]-2-methylbenzenesulfonamide]",fold induction at 15 µM,[1],3.3
same,fold induction at 15 µM,[2],1.1
"Cc1cc(C)c(S(=O)(=O)c2ccccc2)cc1S(=O)(=O)NC1CCOCC1 [Example 327, 2,4-dimethyl-5-(phenylsulfonyl)-N-tetrahydro-2H-pyran-4-ylbenzenesulfonamide]",fold induction at 15 µM,[1],2.7
same,fold induction at 15 µM,[2],1
"CN(C)CCCNS(=O)(=O)c1cccc(S(=O)(=O)c2ccccc2)c1 [Example 196, N-[3-(dimethylamino)propyl]-3-(phenylsulfonyl)benzenesulfonamide]",fold induction at 30 µM,[3],1.4
same,fold induction at 30 µM,[4],1.3
"Cc1ccc(S(=O)(=O)c2ccccc2)cc1S(=O)(=O)N1CCN(CCN2CCOCC2)CC1 [Example 281, 4-[2-(4-{[2-methyl-5-(phenylsulfonyl)phenyl]sulfonyl}piperazin-1-yl)ethyl]morpholine]",fold induction at 15 µM,[1],2.8
same,fold induction at 15 µM,[2],1.3
"C[C@@H](CNS(=O)(=O)c1cccc(S(=O)(=O)c2ccccc2)c1)c1ccccc1 [Example 260, N-[(2R)-2-phenylpropyl]-3-(phenylsulfonyl)benzenesulfonamide]",fold induction at 20 µM,"read-out: Fold Induction with SFRP-1, Conc 20 μM, with SFRP-1, fold induction over SFRP-1 control, single dose",1.2
same,fold induction at 20 µM,"read-out: Fold Induction without SFRP-1, Conc 20 μM, without SFRP-1, single dose",1
"Cc1ccc(S(=O)(=O)c2ccc(C(C)(O)Cc3ccccc3)cc2)cc1S(=O)(=O)NCCc1ccccn1 (stereo not drawn) [Example 408, 5-{[4-(1-hydroxy-1-methyl-2-phenylethyl)phenyl]sulfonyl}-2-methyl-N-(2-pyridin-2-ylethyl)benzenesulfonamide]",fold induction at 15 µM,[1],1.2
same,fold induction at 15 µM,[2],1
"Cc1ccc(S(=O)(=O)c2cccc(O)c2)cc1S(=O)(=O)NCCc1ccccn1 [Example 416, 5-[(3-hydroxyphenyl)sulfonyl]-2-methyl-N-(2-pyridin-2-ylethyl)benzenesulfonamide]",fold induction at 15 µM,[1],1.9
same,fold induction at 15 µM,[2],0.9
"COc1ccc(CCNS(=O)(=O)c2cc(S(=O)(=O)c3ccccc3)ccc2C)cc1OC [Example 34, N-[2-(3,4-dimethoxyphenyl)ethyl]-2-methyl-5-(phenylsulfonyl)benzenesulfonamide]",fold induction at 30 µM,[3],1.7
same,fold induction at 30 µM,[4],0.6
"O=S(=O)(NC1CCN(C(=S)c2ccc(C(F)(F)F)cc2)CC1)c1cc(S(=O)(=O)c2ccccc2)ccc1C(F)(F)F [Example 724, 5-(phenylsulfonyl)-2-(trifluoromethyl)-N-(1-{[4-(trifluoromethyl)phenyl]carbonothioyl}piperidin-4-yl)benzenesulfonamide]",fold induction at 10 µM,,1.7
"C#CCN(CCc1ccc(OC)c(OC)c1)S(=O)(=O)c1cc(S(=O)(=O)c2ccccc2)ccc1C [Example 274, N-[2-(3,4-dimethoxyphenyl)ethyl]-2-methyl-5-(phenylsulfonyl)-N-prop-2-ynylbenzenesulfonamide]",fold induction at 15 µM,[1],2
same,fold induction at 15 µM,[2],1
"Cc1ccc(S(=O)(=O)c2ccc(F)cc2)cc1S(=O)(=O)NCCC1CCCN1C (stereo not drawn) [Example 164, 5-[(4-fluorophenyl)sulfonyl]-2-methyl-N-[2-(1-methylpyrrolidin-2-yl)ethyl]benzenesulfonamide]",fold induction at 15 µM,[1],1.9
same,fold induction at 15 µM,[2],1.1
"CCOc1cc(CCNS(=O)(=O)c2cccc(S(=O)(=O)c3ccccc3)c2)ccc1OC [Example 83, N-[2-(3-ethoxy-4-methoxyphenyl)ethyl]-3-(phenylsulfonyl)benzenesulfonamide]",fold induction at 15 µM,[1],1.3
same,fold induction at 15 µM,[2],1.2
"Cc1ccc(S(=O)(=O)c2ccc(C)c(S(=O)(=O)NC[C@@H](C)c3ccccc3)c2)cc1 [Example 264, 2-methyl-5-[(4-methylphenyl)sulfonyl]-N-[(2S)-2-phenylpropyl]benzenesulfonamide]",Fold Induction with SFRP-1,"Conc 15 μM, with SFRP-1, fold induction over SFRP-1 control, single dose",1.7 fold
same,fold induction at 15 µM,[1],1.1
same,fold induction at 15 µM,[2],0.9
"Cc1ccc(S(=O)(=O)c2ccc(NC(C)c3ccccc3)cc2)cc1S(=O)(=O)NCCCn1ccnc1 (stereo not drawn) [Example 355, N-[3-(1H-imidazol-1-yl)propyl]-2-methyl-5-({4-[(1-phenylethyl)amino]phenyl}sulfonyl)benzenesulfonamide]",fold induction at 15 µM,[1],3.4
same,fold induction at 15 µM,[2],0.9
"COc1ccc(S(=O)(=O)c2ccccc2)cc1S(=O)(=O)NCCc1ccccn1 [Example 234, 2-methoxy-5-(phenylsulfonyl)-N-(2-pyridin-2-ylethyl)benzenesulfonamide]",fold induction at 15 µM,[1],1.2
same,fold induction at 15 µM,[2],1
"O=C(NCCNS(=O)(=O)c1cc(S(=O)(=O)c2ccccc2)ccc1C(F)(F)F)c1ccc(OC(F)(F)F)cc1 [Example 782, N-[2-({[5-(Phenylsulfonyl)-2-(trifluoromethyl)phenyl]sulfonyl}amino)ethyl]-4-(trifluoromethoxy)benzamide]",fold induction at 10 µM,,1.2
